Measurements published in patent US10765114B2, “4-amino-6-(pyridyl and 2-substitutedphenyl)-picolinates and 6-amino-2-(pyridyl and 2-substitutedphenyl)-pyrimidine-4-carboxylates and their use as herbicides” (Dow AgroSciences LLC, priority 2013, dated 2020).

Test system: Key Broadleaf Weed and Crop Species
Assay: Post-Emergent Test II (Table 5)
Type: in vivo
Details: Abutilon theophrasti, post-emergence, 336 h, ABUTH: velvetleaf (Abutilon theophrasti), application rate 70 (kg ai/ha; footnote: g ai/ha), read-out: Visual Growth Reduction (%) 14 Days After Application ABUTH
Summary of the method: (§1)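 Growth stage at treatment: first or second true leaf. Application: compound in acetone/DMSO diluted into an adjuvant-containing aqueous mix, sprayed at 187 L/ha at several rates. Assessment: visual 0-100% injury at 14 days against untreated plants.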

SMILES | pest or weed control at 70 g/ha
COc1c(N)nc(-c2ccc(Cl)c(F)c2C)nc1C(=O)O [Compound 64] | 0 to 29%

Same assay, conditions: Abutilon theophrasti, post-emergence, 336 h, ABUTH: velvetleaf (Abutilon theophrasti), application rate 140 (kg ai/ha; footnote: g ai/ha), read-out: Visual Growth Reduction (%) 14 Days After Application ABUTH

SMILES | pest or weed control at 140 g/ha
COc1c(N)nc(-c2ccc(Cl)c(F)c2C)nc1C(=O)O [Compound 64] | 0 to 29%

Same assay, conditions: Amaranthus retroflexus, post-emergence, 336 h, AMARE: redroot pigweed (Amaranthus retroflexus), application rate 70 (kg ai/ha; footnote: g ai/ha), read-out: Visual Growth Reduction (%) 14 Days After Application AMARE

SMILES | pest or weed control at 70 g/ha
COc1c(N)nc(-c2ccc(Cl)c(F)c2C)nc1C(=O)O [Compound 64] | 60 to 74%

Same assay, conditions: Amaranthus retroflexus, post-emergence, 336 h, AMARE: redroot pigweed (Amaranthus retroflexus), application rate 140 (kg ai/ha; footnote: g ai/ha), read-out: Visual Growth Reduction (%) 14 Days After Application AMARE

SMILES | pest or weed control at 140 g/ha
COc1c(N)nc(-c2ccc(Cl)c(F)c2C)nc1C(=O)O [Compound 64] | 75 to 84%

Same assay, conditions: Brassica napus, post-emergence, 336 h, BRSSS: oilseed rape, canola (Brassica napus), application rate 70 (kg ai/ha; footnote: g ai/ha), read-out: Visual Growth Reduction (%) 14 Days After Application BRSSS

SMILES | pest or weed control at 70 g/ha
COc1c(N)nc(-c2ccc(Cl)c(F)c2C)nc1C(=O)O [Compound 64] | 0 to 29%

Same assay, conditions: Brassica napus, post-emergence, 336 h, BRSSS: oilseed rape, canola (Brassica napus), application rate 140 (kg ai/ha; footnote: g ai/ha), read-out: Visual Growth Reduction (%) 14 Days After Application BRSSS

SMILES | pest or weed control at 140 g/ha
COc1c(N)nc(-c2ccc(Cl)c(F)c2C)nc1C(=O)O [Compound 64] | 0 to 29%

Same assay, conditions: Chenopodium album, post-emergence, 336 h, CHEAL: lambsquarters (Chenopodium album), application rate 70 (kg ai/ha; footnote: g ai/ha), read-out: Visual Growth Reduction (%) 14 Days After Application CHEAL

SMILES | pest or weed control at 70 g/ha
COc1c(N)nc(-c2ccc(Cl)c(F)c2C)nc1C(=O)O [Compound 64] | 95 to 100%

Same assay, conditions: Chenopodium album, post-emergence, 336 h, CHEAL: lambsquarters (Chenopodium album), application rate 140 (kg ai/ha; footnote: g ai/ha), read-out: Visual Growth Reduction (%) 14 Days After Application CHEAL

SMILES | pest or weed control at 140 g/ha
COc1c(N)nc(-c2ccc(Cl)c(F)c2C)nc1C(=O)O [Compound 64] | 95 to 100%

Same assay, conditions: Euphorbia heterophylla, post-emergence, 336 h, EPHHL: wild poinsettia (Euphorbia heterophylla), application rate 70 (kg ai/ha; footnote: g ai/ha), read-out: Visual Growth Reduction (%) 14 Days After Application EPHHL

SMILES | pest or weed control at 70 g/ha
COc1c(N)nc(-c2ccc(Cl)c(F)c2C)nc1C(=O)O [Compound 64] | 0 to 29%

Same assay, conditions: Euphorbia heterophylla, post-emergence, 336 h, EPHHL: wild poinsettia (Euphorbia heterophylla), application rate 140 (kg ai/ha; footnote: g ai/ha), read-out: Visual Growth Reduction (%) 14 Days After Application EPHHL

SMILES | pest or weed control at 140 g/ha
COc1c(N)nc(-c2ccc(Cl)c(F)c2C)nc1C(=O)O [Compound 64] | 0 to 29%

Same assay, conditions: Helianthus annuus, post-emergence, 336 h, HELAN: sunflower (Helianthus annuus), application rate 70 (kg ai/ha; footnote: g ai/ha), read-out: Visual Growth Reduction (%) 14 Days After Application HELAN

SMILES | pest or weed control at 70 g/ha
COc1c(N)nc(-c2ccc(Cl)c(F)c2C)nc1C(=O)O [Compound 64] | 45 to 59%

Same assay, conditions: Helianthus annuus, post-emergence, 336 h, HELAN: sunflower (Helianthus annuus), application rate 140 (kg ai/ha; footnote: g ai/ha), read-out: Visual Growth Reduction (%) 14 Days After Application HELAN

SMILES | pest or weed control at 140 g/ha
COc1c(N)nc(-c2ccc(Cl)c(F)c2C)nc1C(=O)O [Compound 64] | 85 to 94%

Same assay, conditions: Viola tricolor, post-emergence, 336 h, VIOTR: wild pansy (Viola tricolor), application rate 70 (kg ai/ha; footnote: g ai/ha), read-out: Visual Growth Reduction (%) 14 Days After Application VIOTR

SMILES | pest or weed control at 70 g/ha
COc1c(N)nc(-c2ccc(Cl)c(F)c2C)nc1C(=O)O [Compound 64] | 0 to 29%

Same assay, conditions: Viola tricolor, post-emergence, 336 h, VIOTR: wild pansy (Viola tricolor), application rate 140 (kg ai/ha; footnote: g ai/ha), read-out: Visual Growth Reduction (%) 14 Days After Application VIOTR

SMILES | pest or weed control at 140 g/ha
COc1c(N)nc(-c2ccc(Cl)c(F)c2C)nc1C(=O)O [Compound 64] | 0 to 29%

Test system: not given
Assay: not given
Details: not given

melting point | SMILES
140 to 143 °C | COc1c(N)nc(-c2ccc(Cl)c(F)c2C)nc1C(=O)O [Compound 64]

Test system: Key Grass and Sedge Weeds as well as Grass Crops
Assay: Post-Emergent Test II (Table 6)
Type: in vivo
Details: post-emergence, 336 h, CYPSS, 70 g ai/ha, 14 days after application, read-out: Visual Growth Reduction (%) 14 Days After Application CYPSS
Summary of the method: as §1

SMILES | pest or weed control at 70 g/ha
COc1c(N)nc(-c2ccc(Cl)c(F)c2C)nc1C(=O)O [Compound 64] | 0 to 29%

Same assay, conditions: post-emergence, 336 h, CYPSS, 140 g ai/ha, 14 days after application, read-out: Visual Growth Reduction (%) 14 Days After Application CYPSS

SMILES | pest or weed control at 140 g/ha
COc1c(N)nc(-c2ccc(Cl)c(F)c2C)nc1C(=O)O [Compound 64] | 0 to 29%

Same assay, conditions: post-emergence, 336 h, DIGSA: crabgrass (Digitaria sanguinalis), 70 g ai/ha, 14 days after application, read-out: Visual Growth Reduction (%) 14 Days After Application DIGSA

SMILES | pest or weed control at 70 g/ha
COc1c(N)nc(-c2ccc(Cl)c(F)c2C)nc1C(=O)O [Compound 64] | 0 to 29%

Same assay, conditions: post-emergence, 336 h, DIGSA: crabgrass (Digitaria sanguinalis), 140 g ai/ha, 14 days after application, read-out: Visual Growth Reduction (%) 14 Days After Application DIGSA

SMILES | pest or weed control at 140 g/ha
COc1c(N)nc(-c2ccc(Cl)c(F)c2C)nc1C(=O)O [Compound 64] | 0 to 29%

Same assay, conditions: post-emergence, 336 h, ECHSS, 70 g ai/ha, 14 days after application, read-out: Visual Growth Reduction (%) 14 Days After Application ECHSS

SMILES | pest or weed control at 70 g/ha
COc1c(N)nc(-c2ccc(Cl)c(F)c2C)nc1C(=O)O [Compound 64] | 0 to 29%

Same assay, conditions: post-emergence, 336 h, ECHSS, 140 g ai/ha, 14 days after application, read-out: Visual Growth Reduction (%) 14 Days After Application ECHSS

SMILES | pest or weed control at 140 g/ha
COc1c(N)nc(-c2ccc(Cl)c(F)c2C)nc1C(=O)O [Compound 64] | 0 to 29%

Same assay, conditions: post-emergence, 336 h, ORYSS (crop), 70 g ai/ha, 14 days after application, read-out: Visual Growth Reduction (%) 14 Days After Application ORYSS

SMILES | pest or weed control at 70 g/ha
COc1c(N)nc(-c2ccc(Cl)c(F)c2C)nc1C(=O)O [Compound 64] | 0 to 29%

Same assay, conditions: post-emergence, 336 h, ORYSS (crop), 140 g ai/ha, 14 days after application, read-out: Visual Growth Reduction (%) 14 Days After Application ORYSS

SMILES | pest or weed control at 140 g/ha
COc1c(N)nc(-c2ccc(Cl)c(F)c2C)nc1C(=O)O [Compound 64] | 0 to 29%

Same assay, conditions: post-emergence, 336 h, SETFA: giant foxtail (Setaria faberi), 70 g ai/ha, 14 days after application, read-out: Visual Growth Reduction (%) 14 Days After Application SETFA

SMILES | pest or weed control at 70 g/ha
COc1c(N)nc(-c2ccc(Cl)c(F)c2C)nc1C(=O)O [Compound 64] | 0 to 29%

Same assay, conditions: post-emergence, 336 h, SETFA: giant foxtail (Setaria faberi), 140 g ai/ha, 14 days after application, read-out: Visual Growth Reduction (%) 14 Days After Application SETFA

SMILES | pest or weed control at 140 g/ha
COc1c(N)nc(-c2ccc(Cl)c(F)c2C)nc1C(=O)O [Compound 64] | 0 to 29%

Same assay, conditions: post-emergence, 336 h, SORVU: grain sorghum (Sorghum vulgare), 70 g ai/ha, 14 days after application, read-out: Visual Growth Reduction (%) 14 Days After Application SORVU

SMILES | pest or weed control at 70 g/ha
COc1c(N)nc(-c2ccc(Cl)c(F)c2C)nc1C(=O)O [Compound 64] | 0 to 29%

Same assay, conditions: post-emergence, 336 h, SORVU: grain sorghum (Sorghum vulgare), 140 g ai/ha, 14 days after application, read-out: Visual Growth Reduction (%) 14 Days After Application SORVU

SMILES | pest or weed control at 140 g/ha
COc1c(N)nc(-c2ccc(Cl)c(F)c2C)nc1C(=O)O [Compound 64] | 0 to 29%

Same assay, conditions: post-emergence, 336 h, TRZSS (crop), 70 g ai/ha, 14 days after application, read-out: Visual Growth Reduction (%) 14 Days After Application TRZSS

SMILES | pest or weed control at 70 g/ha
COc1c(N)nc(-c2ccc(Cl)c(F)c2C)nc1C(=O)O [Compound 64] | 0 to 29%

Same assay, conditions: post-emergence, 336 h, TRZSS (crop), 140 g ai/ha, 14 days after application, read-out: Visual Growth Reduction (%) 14 Days After Application TRZSS

SMILES | pest or weed control at 140 g/ha
COc1c(N)nc(-c2ccc(Cl)c(F)c2C)nc1C(=O)O [Compound 64] | 0 to 29%

Same assay, conditions: post-emergence, 336 h, ZEAMX: maize, corn (Zea mays), 70 g ai/ha, 14 days after application, read-out: Visual Growth Reduction (%) 14 Days After Application ZEAMX

SMILES | pest or weed control at 70 g/ha
COc1c(N)nc(-c2ccc(Cl)c(F)c2C)nc1C(=O)O [Compound 64] | 0 to 29%

Same assay, conditions: post-emergence, 336 h, ZEAMX: maize, corn (Zea mays), 140 g ai/ha, 14 days after application, read-out: Visual Growth Reduction (%) 14 Days After Application ZEAMX

SMILES | pest or weed control at 140 g/ha
COc1c(N)nc(-c2ccc(Cl)c(F)c2C)nc1C(=O)O [Compound 64] | 0 to 29%
